Test results published in patent US20230158176A1, “NEAR-INFRARED FLUORESCENT SMALL-MOLECULE PROBE, SYNTHESIS METHOD AND APPLICATION THEREOF” (Linyi University, priority 2021, published 2023).

Assays:
[1] = system: murine mammary carcinoma cells (4T1 cells); experiment: In vitro evaluation of cytotoxicity by CCK-8; format: cell-based; details: 10 μM to 60 μM, incubated 1 h
Protocol: Respective toxicity of the IR-780-F solution and the IR-780 solution with concentrations from 10 μM to 60 μM on murine mammary carcinoma cells (also referred to as 4T1 cells) is measured by cell counting kit-8 (CCK-8). Incubated 4T1 cells are collected and centrifuged to prepare cell suspensions, and a cell concentration is adjusted to 8×10^4 cells per milliliter. The 4T1 cells are transferred to 96-well plates, and 100 microliters (μL) 4T1 cells are added to each well, so that a density of the cells to be tested is about 8000 cells per well, and the number of the 96-well plates for experiment is two. The two 96-well plates inoculated with the cells to be tested are placed in an incubator at 37° C. for 12 h. One plate is incubated with the IR-780-F solutions with a concentration gradient from 10 μM to 60 μM for 1 h; the other plate is incubated with the IR-780 solutions with a concentration gradient from 10 μM to 60 μM for 1 h. After the end of incubation, CCK-8 reagent (a volume of 10 μL, a concentration of 5 mg/mL, i.e. 0.5% CCK-8 reagent) is immediately added to the each well and the two 96-well plates continue to incubate for 40 min. Finally, absorptivity and intensity of the each well are tested by an enzyme calibration, and cell viability of the control group is taken as 100%, and the cell viability of the test groups are taken as the percentage of the control group.

[2] = In vitro photothermal efficiency under 808 nm laser radiation; format: physicochemical; details: for highest temperature of the solution: 2.0 W/cm^2, solutions 0.2-1.2 mg/mL in PBS
Protocol: To evaluate in vitro thermogenesis of IR-780 solution and IR-780-F solution, 10 millimoles per litter (mM) IR-780-F solution dissolved in the dimethyl sulfoxide is used, and the IR-780-F solution is respectively diluted to the concentrations of 0.2 milligrams per milliliters (mg/mL), 0.4 mg/mL, 0.8 mg/mL, and 1.2 mg/mL with the phosphate buffered saline and these IR-780-F solutions and the phosphate buffered saline are evaluated. The IR-780 solution is prepared as above.
Temperature changes of the IR-780-F solutions and the phosphate buffered saline and temperature changes of the IR-780 solutions and the phosphate buffered saline are respectively recorded by using an infrared thermal imaging camera (a model of FLIR-E6). The phosphate buffered saline as a control group, 0.2 mg/mL of the IR-780-F solution and 0.2 mg/mL of the IR-780 solution, 0.4 mg/mL of the IR-780-F solution and 0.4 mg/mL of the IR-780 solution, 0.8 mg/mL of the IR-780-F solution and 0.8 mg/mL of the IR-780 solution, 1.2 mg/mL of the IR-780-F solution and 1.2 mg/mL of the IR-780 solution are all exposed to 808 nm laser radiation with a power density of 2.0 Watt per square centimeter (W/cm^2) to be measured and recorded the temperature changes.

[3] = Molecular spectrum test (absorption and emission spectra); format: physicochemical; details: for maximum emission wavelength: λex 740 nm
Protocol: A certain mass of the IR-780-F sample is weighed and dissolved in dimethyl sulfoxide (DMSO) to obtain a solving solution, and the quantitative solving solution is added to 2-[4-(2-hydroxyethyl)-1-piperazinyl]-ethanesulfonic acid (HEPES, also referred to as C8H18N2O4S) buffer solution to form a solution with a concentration of 10.0 micromoles per liter […] (containing 10% dimethyl sulfoxide) and an absorption spectrum of the IR-780-F sample is measured. Ultraviolet absorption spectrum is obtained by Agilent Ultraviolet-Vis spectrophotometer with a scanning wavelength range from 500 nanometers (nm) to 900 nm at a sweep rate of 1002 nanometers per minute (nm/min). Furthermore, addition quantitative solving solution is respectively added to methanol, acetonitrile, phosphate buffered saline (PBS buffer solution), HEPES buffer solution, bovine serum and adult serum to form a solution with a concentration of 10.0 μM (containing 10% dimethyl sulfoxide) to test an emission spectrum of the IR-780-F sample. Hitachi F-4600 […] is used to obtain FT-IR emission spectrum, of the scanning wavelength is from 750 nm to 900nm, an excitation wavelength λex is 740 nm, an excitation slit width is 5 nm, and an emission slit width is 5 nm.

[4] = system: 4T1 tumor-bearing nude mice; experiment: Photothermal treatment effect in tumor-bearing mice; format: in vivo, BALB/c Nude mice
Protocol: (§1) The incubated 4T1 cells are collected by centrifugation, rinsed three times with PBS buffer solution to prepare cell suspensions, which are used a cell counter to count cell number. The cell suspensions are respectively diluted to desired concentrations with the PBS buffer solution. The pretreated 4T1 cells (about 1×10^6 per 100 μL) are injected subcutaneously into right hind legs of BALB/c Nude mice and tumor model mice are obtained after about one week.
After successful tumor loading, mice with an average tumor diameter of about 10×10 mm are randomly divided into four groups (5 mice in each group): (1) control group: intratumoral injection of 0.1 mL of saline; (2) laser group: intratumoral injection of 0.1 mL of saline followed by a laser radiation (a wavelength of 808 nm, 2.0 W/cm^2, 4 min); (3) IR-780-F group: intratumoral injection of 0.1 mL (corresponding to 80 micrograms abbreviated μg) of the IR-780-F solution without the laser radiation; (4) IR-780-F+laser group: intratumoral injection of 80 μg of the IR-780-F solution followed by the laser radiation (a wavelength of 808 mn, 2.0 W/cm^2, 4 min). The mice are anesthetized after administration of the medicine, and the tumor locations of the mice are placed under the laser radiation. When the laser irradiated the tumor locations of the mice, the temperature of the tumor locations under the laser radiation are simultaneously recorded when measured by the thermal infrared imager.

[5] = system: 4T1 tumor-bearing nude mice; experiment: Photothermal efficiency at tumor location in vivo; set-up: species or system BALB/c Nude mice; details: IR-780-F+laser radiation group, intratumoral injection, laser 4 minutes
Protocol: as §1
The injection of the IR-780-F (containing 12.4% dimethyl sulfoxide) is prepared with PBS buffer solution for intratumoral injection. After 12 hours, the nude mice are anesthetized, imaged using a photothermal imager, and temperature changes are recorded. The tumor locations of the mice are irradiated with a laser for 4 minutes, and then the photothermal imaging is again performed on the corresponding tumor locations to record the corresponding temperature.

[6] = system: 4T1 tumor-bearing nude mice; experiment: In vivo NIR fluorescence imaging / distribution in tumor-bearing mice; set-up: species or system BALB/c Nude mice; details: 4 mg/kg via tail vein
Protocol: as §1
In order to determine an optimal time for in vivo photothermal treatment with the IR-780-F, tissue permeability and distribution of the IR-780-F in tumor-bearing mice are examined by means of a whole animal near infrared (NIR) imaging system. An injection of the IR-780-F (containing 12.4% dimethyl sulfoxide) is prepared with PBS buffer solution. When the tumors in the tumor-bearing mice grow to a certain volume, 4 milligrams per kilogram of the tumor-bearing mice (mg/kg) IR-780-F is injected into the tumor-bearing mice via tail vein. The anesthetized nude mice are placed into a in vivo imaging apparatus (also referred to as living imaging apparatus) and subjected to fluorescence imaging at 0 h, 2 h, 4 h, 8 h, 12 h, 24 h, 48 h, 72 h, 96 h and 120 h. […] The organs are placed in the living imaging apparatus to observe fluorescence distribution of each organ.

| SMILES | cell viability of the 4T1 cells [1] | highest temperature of the solution [2] | Stoke shift value (difference between maximum emission wavelength and maximum absorption wavelength) [3] | maximum emission wavelength ([3]; in FBS) | maximum emission wavelength ([3]; in HAS) | maximum absorption wavelength ([3]; in HEPES, 10.0 μM, 10% dimethyl sulfoxide) | maximum emission wavelength ([3]; in HEPES) | maximum emission wavelength ([3]; in MeCN) | maximum emission wavelength ([3]; in MeOH) | tumor size ([4]; IR-780-F group: 80 μg intratumoral without laser radiation, 12th day) | tumor growth ([4]; IR-780-F without laser, compared with laser alone and control PBS group, P>0.05) | mean tumor size ([4]; IR-780-F+laser group: 80 μg intratumoral, 808 nm, 2.0 W/cm^2, 4 min, 12th day) | tumor volumes of excised tumors ([4]; IR-780-F+laser radiation group, sacrificed at the 12th day) | tumor growth ([4]; IR-780-F+laser radiation, P<0.01) | surface temperature of the tumor locations [5] | photothermal conversion effect compared with IR-780 [2] | fluorescence distribution in dissected organs and tumors ([6]; dissected five days later) | distribution of near-infrared fluorescence in vivo ([6]; imaging 0-120 h) |
| --- | --- | --- | --- | --- | --- | --- | --- | --- | --- | --- | --- | --- | --- | --- | --- | --- | --- | --- |
| CCCN1/C(=C/C=C2\CCCC(/C=C/C3=[N+](CCC)c4ccccc4C3(C)C)=C2Cl)C(C)(C)c2ccccc21.[I-] [IR-780, reference compound] | decreases with the increase of the concentrations | 69.3 °C |  |  |  |  |  |  |  |  |  |  |  |  |  |  |  |  |
| CC1(C)C(/C=C/C2=C(Cl)C(=C/C=C3/N(CCC(F)(F)F)c4ccccc4C3(C)C)/CCC2)=[N+](CCC(F)(F)F)c2ccccc21 [IR-780-F] | decreases with the increase of the concentrations | 69.3 °C | 38 nm | 820 nm | 818 nm | 773 nm | 804 nm | 816 nm | 814 nm | 559±49 mm^3 | does not show a significant inhibition | 94±11 mm^3 | significantly smaller than those in the other three groups | significantly inhibited | 52.9±0.2 °C | better photothermal conversion effect than that of the IR-780 | mainly concentrated at the tumor location and there is weak fluorescence in the lungs | significant tumor targeting accumulation |
